Assay results from the supplement of paper PMC10307832.

What was measured:
Test in all cases: relative viability (nuclei count vs DMSO), 5 days (fraction); higher = more cells survive
Ibrutinib + Palbociclib = compound: C=CC(=O)N1CCC[C@@H](n2nc(-c3ccc(Oc4ccccc4)cc3)c3c(N)ncnc32)C1 [Ibrutinib] + CC(=O)c1c(C)c2cnc(Nc3ccc(N4CCNCC4)cn3)nc2n(C2CCCC2)c1=O [Palbociclib] (partner 0.5 µM)
Outline: (§1)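 Dosing by pin tool came one day after lung cancer cell lines were seeded in 1536-well plates, using either one drug or a fixed anchor-drug dose plus five library-drug doses (not always all listed) in √10 steps. After 5 days, nuclei were counted on 4× images. Relative viability is treated-well nuclei count divided by vehicle-well nuclei count, and values are medians of duplicate plates.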

Ibrutinib + Dasatinib = compound: C=CC(=O)N1CCC[C@@H](n2nc(-c3ccc(Oc4ccccc4)cc3)c3c(N)ncnc32)C1 [Ibrutinib] + Cc1nc(Nc2ncc(C(=O)Nc3c(C)cccc3Cl)s2)cc(N2CCN(CCO)CC2)n1 [Dasatinib] (partner 0.075 µM)
Outline: as §1

BMX-IN-1 + OSI-027 = compound: C=CC(=O)Nc1cc(-n2c(=O)ccc3cnc4ccc(-c5ccc(NS(C)(=O)=O)cc5)cc4c32)ccc1C [BMX-IN-1] + COc1cccc2cc(-c3nc([C@H]4CC[C@H](C(=O)O)CC4)n4ncnc(N)c34)[nH]c12 [OSI-027] (partner 0.5 µM)
Outline: as §1

PAC-1 + Olaparib = compound: C=CCc1cccc(/C=N/NC(=O)CN2CCN(Cc3ccccc3)CC2)c1O [PAC-1] + O=C(c1cc(Cc2n[nH]c(=O)c3ccccc23)ccc1F)N1CCN(C(=O)C2CC2)CC1 [Olaparib] (partner 8 µM)
Outline: as §1

Cell Line	relative viability (Ibrutinib + Palbociclib; first compound 0.005 µM)	relative viability (Ibrutinib + Palbociclib; first compound 0.01581 µM)	relative viability (Ibrutinib + Palbociclib; first compound 0.05 µM)	relative viability (Ibrutinib + Palbociclib; first compound 0.1581 µM)	relative viability (Ibrutinib + Palbociclib; first compound 0.5 µM)	relative viability (Ibrutinib + Dasatinib; first compound 0.005 µM)	relative viability (Ibrutinib + Dasatinib; first compound 0.01581 µM)	relative viability (Ibrutinib + Dasatinib; first compound 0.05 µM)	relative viability (Ibrutinib + Dasatinib; first compound 0.1581 µM)	relative viability (Ibrutinib + Dasatinib; first compound 0.5 µM)	relative viability (BMX-IN-1 + OSI-027; first compound 0.02 µM)	relative viability (BMX-IN-1 + OSI-027; first compound 0.2 µM)	relative viability (BMX-IN-1 + OSI-027; first compound 0.6325 µM)	relative viability (BMX-IN-1 + OSI-027; first compound 2 µM)	relative viability (PAC-1 + Olaparib; first compound 0.02 µM)	relative viability (PAC-1 + Olaparib; first compound 0.06325 µM)	relative viability (PAC-1 + Olaparib; first compound 0.2 µM)	relative viability (PAC-1 + Olaparib; first compound 2 µM)
201T	0.225	0.327	0.377	0.378	0.36	0.58	0.517	0.6	0.58	0.608	0.805	0.985	0.798	0.824	0.817	0.859	0.857	0.818
A549															0.344	0.353	0.285	0.477
A-427	0.549	0.533	0.491		0.496	0.625	0.677	0.769	0.666	0.655	0.448	0.417	0.501	0.461	0.786	0.776	0.666	0.711
ABC-1	0.482	0.439			0.733	0.493		0.628	0.555	0.633	0.504	0.491	0.655	0.412	0.781	0.668	0.848	0.741
BEN	0.462	0.465	0.491	0.459	0.453		0.291	0.232	0.273	0.314	0.319	0.282	0.294	0.31	1.14	1.05	0.885	0.872
CAL-12T	0.241	0.286	0.233	0.286	0.14	0.363	0.295	0.354	0.475	0.24	0.712	0.665	0.659	0.679	0.719	0.701	0.72	0.695
COR-L23	0.285	0.304	0.282	0.353	0.332	0.614	0.396	0.497	0.513	0.544	1.01	0.945	1.01	0.754	0.308	0.334		0.379
COR-L 105	0.403	0.406	0.424	0.393	0.303	0.258	0.369	0.229	0.322	0.162	0.817	0.668	0.814	0.586	0.753	0.723	0.631	0.789
Calu-6															0.546	0.585		0.61
ChaGo-K-1	0.94	0.886	0.953	0.869	0.901	0.599	0.479	0.553	0.485	0.587	0.731	0.635	0.624	0.786	0.419	0.412	0.416	0.404
EBC-1															0.551	0.713	0.713	0.649
EKVX	0.304	0.314	0.259	0.269	0.155	0.525	0.455	0.481	0.489	0.352	0.848	0.689	0.783	0.663	0.987	0.847	0.751	0.764
EMC-BAC-2	0.509	0.493	0.566		0.497	0.314	0.316	0.346	0.343	0.296	0.363	0.363	0.421	0.403	0.523	0.481	0.488	0.504
EPLC-272H		0.282	0.312	0.316	0.272	0.274	0.294	0.284	0.279	0.188	0.262	0.261	0.323	0.314	0.763	0.817	0.606	0.567
H3255	0.312	0.328	0.293	0.324	0.26	0.35	0.346	0.276	0.292	0.242	0.635	0.658	0.578	0.518	0.64	0.579	0.536	0.515
HARA	0.284	0.217	0.241	0.254	0.223	0.288	0.235	0.223	0.236	0.194	0.403	0.544	0.562	0.457	0.769	0.65	0.813	1.16
HCC-15	0.788	0.705	0.742	0.706	0.73	0.678	0.615	0.637	0.51	0.66	0.801	0.708	0.698	0.583	0.644	0.775	0.69	0.771
HCC-44	0.982	0.977	1.03	0.979	0.92						0.617	0.515	0.56	0.474	1.05	0.906	0.963	0.986
HCC-78	0.481	0.472	0.507	0.42	0.414	0.309	0.402	0.304	0.312	0.267	0.336	0.372	0.371	0.376	0.8	0.893	0.874	0.827
HCC-366	0.439	0.405	0.38	0.385	0.428	0.734	0.569	0.633	0.538	0.597	1.06	1.14	1.13	1.12	0.314	0.411	0.306	0.378
HCC-827	0.471	0.438	0.453	0.475	0.17	0.358	0.277	0.206	0.262	0.143	0.785	0.968	0.828	0.778	0.65	0.696	0.6	0.646

Cell Line	relative viability (Ibrutinib + Palbociclib; first compound 0.005 µM)	relative viability (Ibrutinib + Palbociclib; first compound 0.01581 µM)	relative viability (Ibrutinib + Palbociclib; first compound 0.05 µM)	relative viability (Ibrutinib + Palbociclib; first compound 0.1581 µM)	relative viability (Ibrutinib + Palbociclib; first compound 0.5 µM)	relative viability (Ibrutinib + Dasatinib; first compound 0.005 µM)	relative viability (Ibrutinib + Dasatinib; first compound 0.01581 µM)	relative viability (Ibrutinib + Dasatinib; first compound 0.05 µM)	relative viability (Ibrutinib + Dasatinib; first compound 0.1581 µM)	relative viability (Ibrutinib + Dasatinib; first compound 0.5 µM)	relative viability (BMX-IN-1 + OSI-027; first compound 0.02 µM)	relative viability (BMX-IN-1 + OSI-027; first compound 0.2 µM)	relative viability (BMX-IN-1 + OSI-027; first compound 0.6325 µM)	relative viability (BMX-IN-1 + OSI-027; first compound 2 µM)	relative viability (PAC-1 + Olaparib; first compound 0.02 µM)	relative viability (PAC-1 + Olaparib; first compound 0.06325 µM)	relative viability (PAC-1 + Olaparib; first compound 0.2 µM)	relative viability (PAC-1 + Olaparib; first compound 2 µM)
HOP-62	0.542	0.442	0.42	0.459	0.516	0.664	0.517	0.708	0.563	0.648	1.01	1.16	1.03	0.817	0.408	0.273	0.438	0.502
IA-LM															0.806	0.964	0.952	0.833
LC-2-ad	0.588	0.513	0.505	0.542	0.505	0.315	0.608	0.637	0.49	0.565	0.872	0.918	0.768	0.841	0.704	0.712	0.35	0.635
LCLC-97TM1	0.222	0.226	0.284	0.241	0.161	0.951	0.804	0.973	0.703	0.782	0.585	0.66	0.542	0.628	0.364	0.524		0.338
LCLC-103H	0.498	0.506	0.528	0.481	0.469	0.496	0.432	0.454	0.489	0.318	0.493	0.55	0.527	0.522	0.771	0.824	0.761	0.745
LK-2	0.469	0.662	0.586	0.542	0.579		0.273	0.278	0.224	0.293	0.219	0.188	0.187	0.242	0.774	0.704	0.673	0.837
LOU-NH91	0.563	0.499	0.567	0.56	0.513	0.473	0.474	0.485	0.522	0.38	0.717		0.772	0.679	0.884	0.908	0.92	0.879
LU99A	0.339	0.391	0.41	0.443	0.391	0.514	0.605	0.465	0.556	0.483	0.321	0.289	0.329	0.298	0.247	0.282	0.271	0.257
LXF-289	0.607	0.598	0.582	0.556	0.606	0.26	0.14	0.275	0.325	0.176	0.878	0.766	1.1	0.838	1.07	1.03	1.05	1.03
NCI-H23	0.484	0.465	0.456	0.53	0.506	0.705	0.762	0.902	0.662	0.901	0.549	0.728	0.581	0.713	0.28	0.284	0.313	0.352
NCI-H322M	0.472	0.463	0.479	0.469	0.399	0.218	0.236	0.242	0.241	0.238	0.581	0.534	0.618	0.502	0.762	0.782	0.74	0.834
NCI-H358	0.121	0.169		0.189	0.11	0.149		0.136	0.152	0.0966	0.942	0.79	1.04	0.75	0.581	0.827	0.569	0.37
NCI-H441	0.2	0.199	0.216	0.138	0.157	0.638	0.649	0.729	0.571	0.55	0.708	0.753	0.649	0.68	0.468	0.69	0.483	0.491
NCI-H460	0.167	0.19	0.197	0.149	0.202	0.548	0.42	0.491	0.286	0.603	1.46	1.16	1.16	0.691	0.4	0.457	0.466	0.369
NCI-H520	0.183	0.217	0.206	0.237	0.161	0.192		0.183	0.237	0.132	0.253	0.238	0.279	0.282	0.382	0.383	0.361	0.33
NCI-H596							0.545	0.579	0.5	0.564	0.924	0.856	0.781	0.81	0.633	0.715	0.607	0.665
NCI-H1299															0.947	0.933	0.937	0.895
NCI-H1563						0.431	0.456	0.507	0.46	0.415	0.838	0.757	0.697	0.642				
NCI-H1623						0.604	0.515	0.461	0.316	0.244	0.42	0.456	0.528	0.409				
NCI-H1648	0.279	0.27	0.259	0.297	0.252						0.223	0.249	0.265	0.272	0.573	0.646	0.889	0.832
NCI-H1703															0.376	0.401	0.388	0.341
